Tests used:
C. auris [1] = experiment: Antifungal susceptibility by broth microdilution (MIC) and SDA plating (MFC); assay type: cell-based, Candida auris; settings: for Average MIC value / Average MFC value: compound alone, C. auris (2921); for Average MIC value: concentration giving 100% inhibition; for Average MFC value: no visible colonies on SDA after 24 h
Procedure: In this work, the antifungal activity of the ionic liquids (IPC4-IPC12) against C. auris was investigated in terms of minimum inhibitory concentration (MIC) and minimum fungicidal concentration (MFC). A stock solution of 20 mg/mL was prepared in 1% Dimethyl sulfoxide (DMSO; Sigma-Aldrich, USA). Fourteen different concentrations of test ILs were prepared by performing serial dilution in a flat bottom 96-well microtiter plate, followed by the addition of C. auris cells (0.5×103-2.5×10^3 cells/mL; 100 μL) which gave us the final test concentrations of ILs (5000-0.61 μg/mL). Amphotericin B was used as a positive control, 1% DMSO as a negative control, and drug-free control was used in each set of experiments. The optical density was determined at a wavelength of 600 nm using SpectraMax iD3 multi-mode microplate reader, and the concentration resulting in 100% inhibition was picked up as the MIC value. Post-MIC evaluation, MFC was estimated by administrating 10 μL of samples from the wells displaying MIC and beyond on a Sabouraud Dextrose Agar (SDA) plate. The plates were incubated at 35±2° C. for 24 h, and the concentration resulting in no visible colonies was documented as MFC value for respective ionic liquids.

C. auris [2] = experiment: Checkerboard microdilution assay of ionic liquids with amphotericin B, with varied ratio isobolograms; assay type: cell-based, Candida auris; settings: for Decrease in the MIC when used together: IPC8 + amphotericin B combination versus alone; for Average MIC values of individual compounds: alone; for MIC of ionic liquids in combination with AmB: 1:1 combination with amphotericin B; for FICb: fractional inhibitory concentration of amphotericin B; for FICa: fractional inhibitory concentration of the ionic liquid; for Type of interaction / ΣFIC: ionic liquid + amphotericin B
Procedure: The type of interaction between ionic liquids and amphotericin B against C. auris was evaluated by the checkerboard microdilution method. The concentrations of ionic liquids used ranged from 5000-0.61 μg/mL, and amphotericin B was 64-0.06 μg/mL. Subsequently, equal volumes (50 μL) of ionic liquids and amphotericin B were dispensed into pre-determined wells, which were further supplemented with C. auris cells (0.5×103-2.5×10^3 cells/mL; 100 μL) followed by incubation at 35±2° C. for 24 h. Also, each experiment included DMSO (1%) was added as negative control along with growth and sterility controls. […] The interaction between the test compounds and amphotericin B was deduced according to the calculated coefficient of the sum of fractional inhibitory concentrations (ΣFIC).
[formula] MICa=MIC of the ionic liquids; MICb=MIC of amphotericin B. The FICI values were interpreted as ΣFIC≤0.5, synergy; ΣFIC>0.5-≤1, additivity; ΣFIC>1-<2, no interaction; ΣFIC≥2, antagonism.

[3] = Viscosity measurement (RHEOSENSE MicroVisc viscometer); assay type: physicochemical; settings: 298K, atmospheric pressure
[4] = Density measurement (Density Meter DMA 501); assay type: physicochemical; settings: 298K, atmospheric pressure
Procedure: The uncertainties in the density measurements, considering the sample handling and purity, are determined to be with an accuracy of 0.0001 g/cm3.

C. auris [5] = experiment: In vitro time-kill assay; assay type: cell-based, Candida auris; settings: for Average log10 CFU/mL: healthy control 7.78
Procedure: The assay for determining the time-kill kinetics values of IPC8 against C. auris was carried out at various concentrations (½, 1, 2, and 4 times the MIC) against C. auris. The C. auris cell suspension with a starting inoculum of around 1×105 to 5×10^5 CFU/mL was incubated with/without IPC8 at 35° C.±2° C. and 150 rpm. Aliquots (100 μL) were taken out at predetermined time points (0, 2, 4, 6, 8, 12, and 24 h), and for determining CFU counts, the aliquots were serially diluted in sterile water and plate (20 μL) on SDA growth medium. The plates were incubated at 35° C.±2° C. for 24 to 48 h, and the number of colonies was counted using a colony counter. The experiment was performed in duplicate, and the result is articulated in log 10 viable CFU/mL.

[6] = test system: horse red blood cells (H-RBC); experiment: Haemolytic activity (cytotoxicity on red blood cells); assay type: cell-based
Procedure: The cytotoxicity of IPC8 on horse red blood cells (H-RBC) was checked by conducting a cytotoxicity assay. Briefly, the RBC was separated from the horse blood and was thoroughly washed with NaCl (150 mM) solution. Thereafter, RBC suspension (2%) was prepared in sterile PBS, followed by the addition (180 μL) to a microcentrifuge tube containing […] ([…]), the microcentrifuge tubes were kept aside for 45 min at 37° C. followed by centrifugation at 1300×g for 5 min. The supernatant (100 μL) was collected in a separate tube and mixed with 900 μL of sterile PBS. Aliquots (200 μL) were taken from each dilution and transferred to a 96-well flat bottom microtiter plate, and optical density was measured at 540 nm (SpectraMax iD3 multi-mode microplate reader, Molecular Devices). The negative control contained RBC suspension in PBS, and the positive control had RBC treated with 0.1% Triton X-100. To calculate the percentage of hemolysis below formula was used.

[7] = nine ratios of IPC8 and amphotericin B (10:90 to 90:10), isobolograms

Compound	Average MIC value (C. auris [1]) [µg/mL]	Average MFC value (C. auris [1]) [µg/mL]	Average MIC values of individual compounds (C. auris [2]) [µg/mL]	MIC of ionic liquids in combination with AmB (C. auris [2]) [µg/mL]	FICb (C. auris [2])	FICa (C. auris [2])	Type of interaction (C. auris [2])	ΣFIC (C. auris [2])	Viscosity [3] [mPa]	Density [4] [g/mL]	further results
C[C@@H]1[C@H](O)[C@@H](C)/C=C/C=C/C=C/C=C/C=C/C=C/C=C/[C@H](O[C@@H]2O[C@H](C)[C@@H](O)[C@H](N)[C@@H]2O)C[C@@H]2O[C@](O)(C[C@@H](O)C[C@@H](O)[C@H](O)CC[C@@H](O)C[C@@H](O)CC(=O)O[C@H]1C)C[C@H](O)[C@H]2C(=O)O [Amphotericin B]	2.0	4.0	2.0								Average MIC value (C. auris [1]; listed as amphotericin B): 2 µg/mL; Average MFC value (C. auris [1]; listed as amphotericin B): 4 µg/mL; Decrease in the MIC when used together (C. auris [2]): four-fold
CCCC[n+]1ccn2ccccc21.[Br-] [IPC4, 1-Butylimidazo[1,2-a] pyridinium bromide]	78.12	312.5	78.12	39.06	1.0	0.5	No INT (ΣFIC>1-<2, no interaction)	1.5	4.14	1.0310	
CCCCCC[n+]1ccn2ccccc21.[Br-] [IPC6, 1-Hexylimidazo[1,2-a] pyridinium bromide]	39.06	78.12	39.06	9.76	0.25	0.24	SYN (ΣFIC≤0.5, synergy)	0.49	14.7	1.0102	
CCCCCCCC[n+]1ccn2ccccc21.[Br-] [IPC8, 1-Octylimidazo[1,2-a] pyridinium bromide]	4.88	9.76	4.88	1.22	0.125	0.25	SYN (ΣFIC≤0.5, synergy)	0.38	25.21	1.0094	Fold lower MIC and MFC values compared to other tested ionic liquids (C. auris [1]; IPC8 versus other ionic liquids): 3 to 8 fold; Time to candidacidal endpoint (C. auris [5]; 2 times MIC): 12 h; Time to 50% reduction in the log10 CFU/mL from the inoculum (C. auris [5]; MIC): 12 h; Average log10 CFU/mL (C. auris [5]; after 24 hr exposure to MIC): 4.67 log10 CFU/mL; Average log10 CFU/mL (C. auris [5]; after 24 hr exposure to ½ MIC): 5.8 log10 CFU/mL; Time to 50% reduction in the number of CFU (C. auris [5]; four times MIC): 2 h; Time to candidacidal endpoint (C. auris [5]; four times MIC): 24 h; Nature of activity in time-kill curve (C. auris [5]; kill of ≥log 3, concentration- and time-dependent): fungicidal; Time to 50% reduction in the number of CFU (C. auris [5]; two times MIC): 4 h; Decrease in the MIC when used together (C. auris [2]): four-fold; Number of ratios (out of nine) with additive interaction (C. auris [2]; [7]): two; Number of ratios (out of nine) with strong synergistic effect (C. auris [2]; [7]): seven; Haemolysis ([6]; 156.25 μg/mL): 16.14%
CCCCCCCCCC[n+]1ccn2ccccc21.[Br-] [IPC10, 1-Decylimidazo[1,2-a] pyridinium bromide]	78.12	312.5	78.12	19.53	0.5	0.25	ADD (ΣFIC>0.5-≤1, additivity)	0.75	27.20	1.0081	
CCCCCCCCCCCC[n+]1ccn2ccccc21.[Br-] [IPC12, 1-Dodecylimidazo[1,2-a] pyridinium bromide]	312.5	625	312.5	156.25	0.5	0.25	ADD (ΣFIC>0.5-≤1, additivity)	0.75	28.60	1.0049	
triton X-100 [reference compound]											Haemolysis (observation) [6]: clear haemolysis
